Our source for the Ki values is BindingDB's records for doi:10.3109/14756366.2011.650691 (University Roma Tre, 2013).

Structures are written as SMILES.

This assay has as its target Spermine oxidase (Homo sapiens, UniProt Q9NWM0). The assay can be described thus: Enzyme Inhibition Assay. Particulars: pH 8.3; 25 °C. On the procedure: SMO activity was assayed at pH 8.3 (0.1 M Tris-HCl buffer) and 25°C using Spm as the substrate in the presence and absence of CHX.

Spermine oxidase, sequence (Q9NWM0 whole entry): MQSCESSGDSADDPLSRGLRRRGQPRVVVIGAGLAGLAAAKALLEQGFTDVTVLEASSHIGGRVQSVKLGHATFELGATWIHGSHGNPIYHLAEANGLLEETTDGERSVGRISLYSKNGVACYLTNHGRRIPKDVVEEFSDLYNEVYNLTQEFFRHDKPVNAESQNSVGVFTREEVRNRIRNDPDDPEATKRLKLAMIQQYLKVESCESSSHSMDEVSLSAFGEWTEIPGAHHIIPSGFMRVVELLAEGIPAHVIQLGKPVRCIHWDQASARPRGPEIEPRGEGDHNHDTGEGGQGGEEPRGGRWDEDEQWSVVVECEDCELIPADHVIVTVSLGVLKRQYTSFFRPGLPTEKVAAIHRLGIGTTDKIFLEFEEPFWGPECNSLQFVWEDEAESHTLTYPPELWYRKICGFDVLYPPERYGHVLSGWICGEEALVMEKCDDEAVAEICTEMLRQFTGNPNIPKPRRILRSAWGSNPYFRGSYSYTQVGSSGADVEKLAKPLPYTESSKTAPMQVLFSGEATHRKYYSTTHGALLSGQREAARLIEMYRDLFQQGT

The term Ki denotes the equilibrium dissociation constant of an inhibitor or competing ligand from its target. As for `[H]/N=C(\N/C(=N/[H])NCCCCCCNC(=N)NC(=N)Nc1ccc(Cl)cc1)Nc1ccc(Cl)cc1` [Chlorhexidine (1)], affinity was put at a Ki of 550 nM.
